According to patent publication EP1285920A1, “C10 Ester sustituted taxanes as antitumor agents” (Florida State University Research Foundation, Inc., priority 2001, dated 2003):
Read-outs that look alike come from different tables or passages of the source.

Legend:
[1] = system: A375 melanoma; settings: for Complete Response / Partial Response / Stable Disease / Survivors / Toxic Deaths: number of mice; for Mean Score: tumor scoring system
Procedure: Dosing was initiated on Day 1. […] Taxotere was given i.v. on a qd x 1 schedule at a dose of 70 mg/kg. […] The study was terminated on Day 60. Treatment groups are detailed in Table 9.

[2] = system: DU145 prostate carcinoma; settings: for Stable Disease / Complete Response / Partial Response / Survivors / Toxic Deaths: number of 5 mice
Source text: Dosing was initiated on Day 1. […] Treatment groups are detailed in Table 5.

[3] = system: NCI-H1299 (H1299) carcinoma; test: In vivo evaluation against NCI-H1299 human lung carcinoma xenograft (i.v., Example 11)
Procedure: Antitumor compounds were formulated for an i.v. dosing regime prepared in the following vehicle: 10% ethanol, 10% Cremophor and 80% isotonic saline.
Vehicle control animals were dosed twice intravenously with half the total volume being given separated by one hour. The study was terminated on Day 60.
A complete response is obtained if the tumor is not palpable at the end of the study.
A tumor scoring system was designed to provide a more quantitative ranking of efficacy (therapeutic potential) among the antitumor agents evaluated against the different human solid tumor xenografts. Each mouse in a study was given a score of from 1 to 10 at the end of the study. The scores can be summarized as follows:
The individual score for each mouse was averaged into a mean score for each treatment group. […]
The treatment protocol for the H1299 test was identical to the SK-MES test protocol. […]

[4] = system: HCT116 carcinoma; settings: HCT116
Summary of the method: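 Mice bearing HCT116 tumours received a single i.v. maximum tolerated dose per compound, formulated in 5% ethanol, 5% Cremophor, 90% isotonic saline. Study ended on Day 60; complete response meant no palpable tumour at study end.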

[5] = Taxol i.p. qd x 5, 18 mg/kg daily, 6 mice
[6] = i.v. qd x 1 at estimated MTD (Taxol 24 mg/kg, Taxotere 70 mg/kg), 6 mice/group (Taxotere 7)
[7] = i.v. qd x 1 at estimated MTD (Taxol 24 mg/kg, Taxotere 70 mg/kg), 6 mice/group (Taxotere 7), Day 60
[8] = i.v. qd x 1 at estimated MTD (Taxol 24 mg/kg split), Day 91
[9] = i.v. split dose qd x 1, six mice per group
[10] = Taxol i.p. 18 mg/kg qd x 5 (Group 3)

CC(=O)O[C@H]1C(=O)[C@@]2(C)[C@H]([C@H](OC(=O)c3ccccc3)[C@]3(O)C[C@H](OC(=O)[C@H](O)[C@@H](NC(=O)c4ccccc4)c4ccccc4)C(C)=C1C3(C)C)[C@]1(OC(C)=O)CO[C@@H]1C[C@@H]2O [Taxol, paclitaxel, reference compound]
toxicity ([1]; A375, Taxol i.p. 18 mg/kg qd x 5): highly toxic
animals died of toxicity ([1]; A375, Taxol i.p. 18 mg/kg qd x 5, six animals): six
survival extension compared to Group 1 controls ([1]; A375, i.v. qd x 1): 26%
MDS ([1]; A375, i.v. qd x 1 (Taxol 24 mg/kg split; Taxotere 70 mg/kg), days until tumor 2.0 g, ended Day 60): 18.1 days
MDS (n) ([1]; mean days of survival until neoplasm reached 2.0 g, i.v. qd x 1 at estimated MTD (Taxol 24 mg/kg, Taxotere 70 mg/kg), 6 mice/group (Taxotere 7), terminated Day 60): 18.1 ± 0.6 (4) days
Complete Response [1, 5]: 0
Partial Response [1, 5]: 0
Stable Disease [1, 5]: 0
Survivors [1, 5]: 0
Toxic Deaths [1, 5]: 6
Toxic Deaths [1, 6]: 2
Complete Response [1, 7]: 0
Partial Response [1, 7]: 0
Stable Disease [1, 7]: 0
Survivors [1, 7]: 0
Mean Score [1, 5]: 0 ± 0
Mean Score [1, 6]: 0.8 ± 0.3
increase in survival compared to Group 1 controls ([2]; DU145, Taxol 24 mg/kg i.v. qd x 1): 9%
toxicity ([2]; DU145, Taxol i.p. 18 mg/kg qd x 5 (Group 3)): highly toxic
mice died of drug-related side effects ([2]; DU145, Taxol i.p. 18 mg/kg qd x 5 (Group 3), five mice): five
MDS ([2]; DU145, i.v. qd x 1 (compounds estimated MTD; Taxol 24 mg/kg split), days until tumor 1.5 g, ended Day 91): 37.4 days
toxic deaths / toxic lethalities ([2]; DU145, i.v. qd x 1, five mice per group): One
Mean Score ([2]; Taxol 18 mg/kg i.p. qd x 5, 5 mice): 0 ± 0
Mean Score ([2]; i.v. qd x 1 at estimated MTD (Taxol 24 mg/kg split), 5 mice/group, Day 91): 2 ± 1
MDS (n) ([2]; mean days of survival until tumor reached 1.5 g, i.v. qd x 1 at estimated MTD (Taxol 24 mg/kg as two split doses), 5 mice/group, study ended Day 91): 37.4 ± 8.9 (3) days
Stable Disease ([2]; tumor did not reach 1.5 g by end of study, i.v. qd x 1 at estimated MTD (Taxol 24 mg/kg split), Day 91): 1
Complete Response ([2]; Taxol 18 mg/kg i.p. qd x 5): 0
Partial Response ([2]; Taxol 18 mg/kg i.p. qd x 5): 0
Stable Disease ([2]; Taxol 18 mg/kg i.p. qd x 5): 0
Survivors ([2]; Taxol 18 mg/kg i.p. qd x 5): 0
Toxic Deaths ([2]; Taxol 18 mg/kg i.p. qd x 5): 5
Toxic Deaths ([2]; i.v. qd x 1 at estimated MTD (Taxol 24 mg/kg as two split doses), Day 91): 1
Complete Response [2, 8]: 0
Partial Response [2, 8]: 0
Survivors [2, 8]: 1
survival extension compared to vehicle-treated animals ([3]; Taxol 36 mg/kg i.v., five animals): 10%
MDS (n) ([3]; i.v. MTD in two half doses one hour apart, qd x 1, Taxol 36 mg/kg, 0503 72.1 mg/kg, ended Day 60): 27.0 ± 4.6 (5) days
Complete Response ([3]; i.v. split dose qd x 1): 0
Stable Disease ([3]; i.v. split dose qd x 1): 0
antitumor activity ([3]; i.v. split dose qd x 1): not active
Survivors [3, 9]: 1
Toxic Deaths [3, 9]: 0
Mean Score ([3]; tumor score 1 to 10 per mouse, group mean): 2.7 ± 1.3
increase in survival compared to control Group 1 ([4]; Taxol 36 mg/kg i.v. qd x 1): 24%
Partial Response [4, 10]: one
survival extension compared to Group 1 control mice [4, 10]: 84%
MDS ([4]; i.v. qd x 1 (compounds single MTD; Taxol 36 mg/kg split), days until tumor 2.0 g, ended Day 60): 27.5 days
Stable Disease ([4]; i.v. qd x 1, five mice per group): one
